For experiment [1], the system named is HCV RNA replicon ET (luc ubi neo/ET). As to the kind of experiment: HCV RNA replicon luciferase assay in human hepatoma cell line ET. The class given is cell-based. The note with it: Hepatitis C virus, 72 hours, read-out: EC50, effective concentration that reduced viral replication by 50% (HCV RNA replicon derived LUC activity). The protocol: Representative compounds of the present invention were tested for activity against HCV using the methods adapted from those described by Kriger et al., 2001, Journal of Virology 75:4614-4624, Pietschmann et al., 2002, Journal of Virology, 76:4008-4021, and using HCV RNA constructs as described in U.S. Pat. No. 6,630,343. Compounds were examined in the human hepatoma cell line ET (lub ubi neo/ET), a HCV RNA replicon containing a stable luciferase (LUC) reporter. The HCV RNA replicon ET contains the 5′ end of HCV (with the HCV Internal Ribosome Entry Site (IRES) and the first few amino acids of the HCV core protein) which drives the production of a firefly luciferase (LUC), ubiquitin, and neomycin phosphotransferase (NeoR) fusion protein. Ubiquitin cleavage releases the LUC and NeoR proteins. The EMCV IRES element controls the translation of the HCV […] NS3-NS5. The NS3 protein cleaves the HCV polyprotein to release the mature NS3, NS4A, NS4B, NS5A and NS5B proteins that are required for HCV replication. At the 3′ end of the replicon is the authentic 3′ NTR of HCV. The activity of the LUC reporter is directly proportional to HCV replication levels and positive-control antiviral compounds produce a reproducible antiviral response using the LUC endpoint.
The compounds were dissolved in DMSO at five half-log concentrations each, ranging from either 0.03 to 3 μM or 1 to 100 μM. Subconfluent cultures of the ET line were plated out into 96 well plates dedicated for the analysis of cell numbers (cytotoxicity) or antiviral activity and the next day the compounds were added to the appropriate wells. […] Compound EC50 and EC90 values were derived from HCV RNA levels assessed as HCV RNA replicon derived LUC activity. Cytotoxicity was expressed as IC50 and IC90, the concentration of compound that inhibited cell viability by 50% and 90%, respectively. Compound IC50 and IC90 values were calculated using a colorimetric assay as an indication of cell numbers and cytotoxicity. The activity of the LUC reporter is directly proportional to HCV RNA levels in the human cell line. The HCV-replicon assay was validated in parallel experiments using interferon-alpha-2b as a positive control. Cyclosporine was also tested by way of comparison.
(In general: A replicon is a self-replicating genome or part of one, used to study replication in cells.)

Experiment [2] has as its target cyclophilin D (Homo sapiens, UniProt P30405). As to the kind of experiment: Cyclophilin binding competitive ELISA (cyclophilin D). The following applies: human recombinant cyclophilin, read-out: EC50, concentration required to achieve 50% inhibition, against cyclophilin D. How it is done: (§1) The cyclophilin inhibition binding of compounds disclosed herein is determined using a competitive ELISA adapted from the methods described by Quesniaux et al. (Eur. J. Immunol., 1987, 17:1359-1365). Activated ester of succinyl spacers bound to D-Lys^8-cyclosporine A (D-Lys^8-Cs) are coupled to bovine serum albumin (BSA) through D-lysyl residue in position 8. BSA is dissolved in 0.1 M borate buffer, pH 9.0 (4 mg in 1.4 ml). A hundredfold molar excess of D-Lys^8-Cs dissolved in dimethyl formamide (0.6 ml) is added drop wise to the BSA under vigorous stirring.
(§2) Microtiter Plates are coated with D-Lys^8-Cs-BSA conjugate (2 μg/ml in PBS for 24 hours at 4° C.). Plates are washed with Tween®/PBS and with PBS alone. To block nonspecific binding, 2% BSA/PBS (pH 7.4) is added to the wells and allowed to incubate for 2 hours at 37° C. […] Cyclophilin is detected with anti-cyclophilin rabbit antiserum diluted in 1% BSA containing PBS and incubates overnight at 4° C. […] Bound rabbit antibodies are then detected by goat anti-rabbit IgG conjugated to alkaline phosphatase diluted in 1% BSA-PBS and allowed to incubate for 2 hours at 37° C. […] After incubation with 4-nitrophenyl phosphate (1 g/l in diethanolamine buffer, pH 9.8) for 1 to 2 hours at 37° C., the enzymatic reaction is measured spectrophotometrically at 405 nm using a spectrophotometer. […]

The target of experiment [3] is cyclophilin B (Homo sapiens, UniProt P23284). In words: Cyclophilin binding competitive ELISA (cyclophilin B). The following applies: human recombinant cyclophilin, read-out: EC50, concentration required to achieve 50% inhibition, against cyclophilin B. The protocol: as §1, §2
Chain of cyclophilin B (P23284 34-216): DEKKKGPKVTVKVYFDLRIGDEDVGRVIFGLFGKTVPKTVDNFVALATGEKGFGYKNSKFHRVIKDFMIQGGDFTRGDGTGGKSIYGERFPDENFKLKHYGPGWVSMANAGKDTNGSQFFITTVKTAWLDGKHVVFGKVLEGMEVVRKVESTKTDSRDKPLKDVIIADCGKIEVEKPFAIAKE
Experiment [4] concerns the target cyclophilin A (Homo sapiens, UniProt P62937). In words: Cyclophilin binding competitive ELISA (cyclophilin A). The following applies: human recombinant cyclophilin, read-out: EC50, concentration required to achieve 50% inhibition, against cyclophilin A. How it is done:
as §1, §2
On the technique in general: ELISA stands for enzyme-linked immunosorbent assay.

Chain of cyclophilin D (P30405 30-207): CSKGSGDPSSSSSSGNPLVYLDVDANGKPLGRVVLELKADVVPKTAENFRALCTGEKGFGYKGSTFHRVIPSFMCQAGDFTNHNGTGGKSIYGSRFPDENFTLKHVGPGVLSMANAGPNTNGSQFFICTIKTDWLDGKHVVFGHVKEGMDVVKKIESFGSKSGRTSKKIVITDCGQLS
Chain of cyclophilin A (P62937 whole entry): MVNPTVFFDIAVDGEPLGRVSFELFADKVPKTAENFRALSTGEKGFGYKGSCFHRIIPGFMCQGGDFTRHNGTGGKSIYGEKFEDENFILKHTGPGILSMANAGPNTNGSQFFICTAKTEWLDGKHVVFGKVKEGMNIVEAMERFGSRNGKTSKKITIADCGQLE

For `CC=CCC(C)C(O)C1C(=O)NC(CC)C(=O)N(C)C(SCCN(C)C)C(=O)N(C)C(CC(C)C)C(=O)N(Cc2ccccc2)C(C(C)C)C(=O)N(C)C(CC(C)C)C(=O)NC(C)C(=O)NC(C)C(=O)N(C)C(CC(C)C)C(=O)N(C)C(CC(C)C)C(=O)N(C)C(C(C)C)C(=O)N1C` [Compound 1, [(R)-2-(N,N-Dimethylamino)ethylthio-Sar]^3-(N-benzyl)-Val^5-cyclosporine A], the EC50 in experiment [1] was less than 1000 nM.

As for `C/C=C/C[C@@H](C)[C@@H](O)[C@H]1C(=O)N[C@@H](CC)C(=O)N(C)C(SC)C(=O)N(C)[C@@H](CC(C)C)C(=O)N(Cc2ccccc2)[C@@H](C(C)C)C(=O)N(C)[C@@H](CC(C)C)C(=O)N[C@@H](C)C(=O)N[C@H](C)C(=O)N(C)[C@@H](CC(C)C)C(=O)N(C)[C@@H](CC(C)C)C(=O)N(C)[C@@H](C(C)C)C(=O)N1C` (some centres unmarked) [Compound 4, [Methylthio-Sar]^3-(N-benzyl)-Val^5-cyclosporine A], the figures for the EC50 in experiment [1] and in experiment [2] were less than 1000 nM and greater than 600 nM, respectively.

On to `CC=CCC(C)C(O)C1C(=O)NC(CC)C(=O)N(C)C(SCCC)C(=O)N(C)C(CC(C)C)C(=O)N(Cc2ccccc2)C(C(C)C)C(=O)N(C)C(CC(C)C)C(=O)NC(C)C(=O)NC(C)C(=O)N(C)C(CC(C)C)C(=O)N(C)C(CC(C)C)C(=O)N(C)C(C(C)C)C(=O)N1C` (centres unmarked) [Compound 5, [n-Propylthio-Sar]^3-(N-benzyl)-Val^5-cyclosporine A], for which the EC50 in experiment [1] is greater than 1000 nM; in experiment [3], greater than 600 nM; in experiment [4], greater than 600 nM; in experiment [2], greater than 600 nM.

`CC=CCC(C)C(O)C1C(=O)NC(CC)C(=O)N(C)C(OC)C(=O)N(C)C(CC(C)C)C(=O)N(Cc2ccccc2)C(C(C)C)C(=O)N(C)C(CC(C)C)C(=O)NC(C)C(=O)NC(C)C(=O)N(C)C(CC(C)C)C(=O)N(C)C(CC(C)C)C(=O)N(C)C(C(C)C)C(=O)N1C` (centres unmarked) [Compound 6, [Methoxy-Sar]^3-(N-benzyl)-Val^5-cyclosporine A]: the EC50 in experiment [1] was less than 1000 nM.

For the molecule `CC=CCC(C)C(O)C1C(=O)NC(CC)C(=O)N(C)C(OC)C(=O)N(C)C(CC(C)C)C(=O)N(Cc2cccc(C(F)(F)F)c2)C(C(C)C)C(=O)N(C)C(CC(C)C)C(=O)NC(C)C(=O)NC(C)C(=O)N(C)C(CC(C)C)C(=O)N(C)C(CC(C)C)C(=O)N(C)C(C(C)C)C(=O)N1C` (centres unmarked) [Compound 7, [Methoxy-Sar]^3-(3-trifluoromethylbenzyl)-Val^5-cyclosporine A], the EC50 in experiment [1] was less than 1000 nM.

On to `C=CCN1C(=O)C(CC(C)C)N(C)C(=O)C(OC)N(C)C(=O)C(CC)NC(=O)C(C(O)C(C)CC=CC)N(C)C(=O)C(C(C)C)N(C)C(=O)C(CC(C)C)N(C)C(=O)C(CC(C)C)N(C)C(=O)C(C)NC(=O)C(C)NC(=O)C(CC(C)C)N(C)C(=O)C1C(C)C` (centres unmarked) [Compound 8, [Methoxy-Sar]^3-(N-allyl)-Val^5-cyclosporine A], for which the EC50 in experiment [1] was less than 1000 nM.

With `CC=CCC(C)C(O)C1C(=O)NC(CC)C(=O)N(C)C(OC)C(=O)N(C)C(CC(C)C)C(=O)N(CC=CC)C(C(C)C)C(=O)N(C)C(CC(C)C)C(=O)NC(C)C(=O)NC(C)C(=O)N(C)C(CC(C)C)C(=O)N(C)C(CC(C)C)C(=O)N(C)C(C(C)C)C(=O)N1C` (centres unmarked) [Compound 9, [Methoxy-Sar]^3-(N-but-2-enyl)-Val^5-cyclosporine A], the EC50 in experiment [1] was less than 1000 nM.

On to `CC=CCC(C)C(O)C1C(=O)NC(CC)C(=O)N(C)C(OC)C(=O)N(C)C(CC(C)C)C(=O)N(CC=C(C)C)C(C(C)C)C(=O)N(C)C(CC(C)C)C(=O)NC(C)C(=O)NC(C)C(=O)N(C)C(CC(C)C)C(=O)N(C)C(CC(C)C)C(=O)N(C)C(C(C)C)C(=O)N1C` (centres unmarked) [Compound 10, [Methoxy-Sar]^3-(N-3-methyl-but-2-enyl)-Val^5-cyclosporine A], for which the EC50 in experiment [1] was less than 1000 nM.

Regarding `CC=CCC(C)C(O)C1C(=O)NC(CC)C(=O)N(C)C(OC)C(=O)N(C)C(CC(C)C)C(=O)N(CC=CCOCc2ccccc2)C(C(C)C)C(=O)N(C)C(CC(C)C)C(=O)NC(C)C(=O)NC(C)C(=O)N(C)C(CC(C)C)C(=O)N(C)C(CC(C)C)C(=O)N(C)C(C(C)C)C(=O)N1C` (stereo not drawn) [Compound 11, [Methoxy-Sar]^3-N-(trans-4-benzyloxy-but-2-enyl)-Val^5-cyclosporine A], the EC50 in experiment [1] was less than 1000 nM.

Turning to `CC=CCC(C)C(O)C1C(=O)NC(CC)C(=O)N(C)C(SC)C(=O)N(C)C(CC(C)C)C(=O)N(CC=CCO)C(C(C)C)C(=O)N(C)C(CC(C)C)C(=O)NC(C)C(=O)NC(C)C(=O)N(C)C(CC(C)C)C(=O)N(C)C(CC(C)C)C(=O)N(C)C(C(C)C)C(=O)N1C` (stereo not drawn) [Compound 14, [Methylthio-Sar]^3-N-[trans-4-hydroxy-but-2-enyl]-Val^5-cyclosporine A], the EC50 in experiment [1] is less than 1000 nM.

For the molecule `CC=CCC(C)C(O)C1C(=O)NC(CC)C(=O)N(C)C(OC)C(=O)N(C)C(CC(C)C)C(=O)N(CC=CCO)C(C(C)C)C(=O)N(C)C(CC(C)C)C(=O)NC(C)C(=O)NC(C)C(=O)N(C)C(CC(C)C)C(=O)N(C)C(CC(C)C)C(=O)N(C)C(C(C)C)C(=O)N1C` (stereo not drawn) [Compound 15, [Methoxy-Sar]^3-N-[trans-4-hydroxy-but-2-enyl]-Val^5-cyclosporine A], the EC50 in experiment [1] was less than 1000 nM.

For `CC=CCC(C)C(O)C1C(=O)NC(CC)C(=O)N(C)C(SC)C(=O)N(C)C(CC(C)C)C(=O)N(CC=CCN(C)C)C(C(C)C)C(=O)N(C)C(CC(C)C)C(=O)NC(C)C(=O)NC(C)C(=O)N(C)C(CC(C)C)C(=O)N(C)C(CC(C)C)C(=O)N(C)C(C(C)C)C(=O)N1C` (stereo not drawn) [Compound 16, [Methylthio-Sar]^3-N-[trans-4-dimethylamino-but-2-enyl]-Val^5-cyclosporine A], in experiment [1], the EC50 is less than 1000 nM.

On to `CC=CCC(C)C(O)C1C(=O)NC(CC)C(=O)N(C)C(OC)C(=O)N(C)C(CC(C)C)C(=O)N(CC=CCN(C)C)C(C(C)C)C(=O)N(C)C(CC(C)C)C(=O)NC(C)C(=O)NC(C)C(=O)N(C)C(CC(C)C)C(=O)N(C)C(CC(C)C)C(=O)N(C)C(C(C)C)C(=O)N1C` (stereo not drawn) [Compound 17, [Methoxy-Sar]^3-N-[trans-4-dimethylamino-but-2-enyl]-Val^5-cyclosporine A], for which the EC50 in experiment [1] is less than 1000 nM.
